Reference: ChEMBL document CHEMBL4725392, “Orally Bioavailable Small-Molecule CD73 Inhibitor (OP-5244) Reverses Immunosuppression through Blockade of Adenosine Production” (J Med Chem, 2020)

Columns and labels:
5'-nucleotidase [1] = target: T1, 5'-nucleotidase (Mus musculus, UniProt Q61503); experiment: Inhibition of CD73 in mouse EMT6 cells assessed as reduction in AMP-induced ADO expression preincubated for 15 mins followed by AMP addition and measured after 1 hr by LC-MS/MS analysis; type: cell-based
T1 sequence (Q61503 whole entry): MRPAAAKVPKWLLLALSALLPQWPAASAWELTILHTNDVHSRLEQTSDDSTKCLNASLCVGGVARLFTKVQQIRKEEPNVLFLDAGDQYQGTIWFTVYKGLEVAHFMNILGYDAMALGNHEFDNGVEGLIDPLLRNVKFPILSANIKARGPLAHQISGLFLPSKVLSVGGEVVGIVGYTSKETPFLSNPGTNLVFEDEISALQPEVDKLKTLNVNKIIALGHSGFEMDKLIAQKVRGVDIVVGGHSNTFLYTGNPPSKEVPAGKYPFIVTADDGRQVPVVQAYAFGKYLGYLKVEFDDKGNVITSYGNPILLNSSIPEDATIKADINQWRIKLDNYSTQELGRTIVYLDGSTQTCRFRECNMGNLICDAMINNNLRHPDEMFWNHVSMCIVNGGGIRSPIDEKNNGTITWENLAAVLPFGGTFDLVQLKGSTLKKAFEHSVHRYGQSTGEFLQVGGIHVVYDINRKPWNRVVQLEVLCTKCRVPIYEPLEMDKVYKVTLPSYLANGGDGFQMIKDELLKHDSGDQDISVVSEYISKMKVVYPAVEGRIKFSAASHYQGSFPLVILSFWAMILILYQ

5'-nucleotidase [2] = target: T2, 5'-nucleotidase (Homo sapiens, UniProt P21589); experiment: Inhibition of human C-terminal His6-tagged CD73 expressed in CHO cells preincubated for 15 mins followed by AMP addition and measured after 10 mins by malachite green reagent based assay; type: cell-based
T2 sequence (P21589 whole entry): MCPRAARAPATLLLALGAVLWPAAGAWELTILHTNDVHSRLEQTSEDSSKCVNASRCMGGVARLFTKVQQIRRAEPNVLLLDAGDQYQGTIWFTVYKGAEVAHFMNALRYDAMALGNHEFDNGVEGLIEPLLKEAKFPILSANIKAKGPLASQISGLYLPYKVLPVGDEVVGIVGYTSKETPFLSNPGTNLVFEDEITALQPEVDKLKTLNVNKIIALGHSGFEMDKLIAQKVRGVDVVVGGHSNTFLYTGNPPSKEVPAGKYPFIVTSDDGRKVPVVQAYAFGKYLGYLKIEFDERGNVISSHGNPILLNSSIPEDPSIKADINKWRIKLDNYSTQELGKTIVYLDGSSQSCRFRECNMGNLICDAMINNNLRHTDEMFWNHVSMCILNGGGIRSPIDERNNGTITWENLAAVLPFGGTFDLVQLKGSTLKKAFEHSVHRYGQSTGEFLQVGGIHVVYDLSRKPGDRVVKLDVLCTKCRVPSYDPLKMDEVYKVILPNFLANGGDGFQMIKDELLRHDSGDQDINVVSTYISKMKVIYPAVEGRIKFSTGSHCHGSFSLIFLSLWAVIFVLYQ

[3] = AUC infinity in mouse at 200 mg/kg, po; type: ADME, organism-based; set-up: route oral, time infinity, dose 200 mg/kg; details: in vivo
[4] = Terminal half life in mouse at 200 mg/kg, po; type: ADME, organism-based; details: in vivo, read-out: beta t1/2 (converted)
5'-nucleotidase [5] = target: T2, 5'-nucleotidase; experiment: Inhibition of CD73 in human NCI-H1568 cells assessed as reduction in AMP-induced ADO expression preincubated for 15 mins followed by AMP addition and measured after 1 hr by LC-MS/MS analysis; type: cell-based
[6] = Cmax in mouse at 200 mg/kg, po; type: ADME, organism-based; set-up: route oral, dose 200 mg/kg; details: in vivo
[7] = AUC infinity in rat at 50 mg/kg, po; type: ADME, organism-based; set-up: time infinity, route oral, dose 50 mg/kg; details: in vivo
[8] = Cmax in rat at 50 mg/kg, po; type: ADME, organism-based; set-up: route oral, dose 50 mg/kg; details: in vivo
[9] = Terminal half life in rat at 50 mg/kg, po; type: ADME, organism-based; details: in vivo, read-out: beta t1/2 (converted)

Row | SMILES | IC50 (5'-nucleotidase [2]) [nM] | further results
1 | C[C@H](Nc1cc(Cl)nc2c1cnn2[C@@H]1O[C@H](COP(=O)(O)CP(=O)(O)O)[C@@H](O)[C@H]1O)c1ccccc1F | – | EC50 (5'-nucleotidase [1]): 198 nM
2 | C[C@@](CO)(OC[C@H]1O[C@@H](n2ncc3c(NC4CCCC4)nc(Cl)nc32)[C@H](O)[C@@H]1O)P(=O)(O)O | 0.51 | AUC(0-inf) [3]: 54.2 µM·h; half-life [4]: 2.88 h; EC50 (5'-nucleotidase [1]): 41 nM; EC50 (5'-nucleotidase [5]): 6.9 nM; Cmax [6]: 54.9 µM
3 | COC[C@@](CO)(OC[C@H]1O[C@@H](n2ncc3c(NC4CCCC4)nc(Cl)nc32)[C@H](O)[C@@H]1O)P(=O)(O)O | 1 | –
4 | C[C@](CO)(OC[C@H]1O[C@@H](n2ncc3c(NC4CCCC4)nc(Cl)nc32)[C@H](O)[C@@H]1O)P(=O)(O)O | 11.7 | –
5 | CN(Cc1ccccc1)c1nc(Cl)nc2c1ncn2[C@@H]1O[C@H](COP(=O)(O)CP(=O)(O)O)[C@@H](O)[C@H]1O | 3 | –
6 | Nc1ncnc2c1ncn2[C@@H]1O[C@H](COP(=O)(O)CP(=O)(O)O)[C@@H](O)[C@H]1O [PHOSPHOMETHYLPHOSPHONIC ACID ADENOSYL ESTER] | 2650 | EC50 (5'-nucleotidase [5]): 16300 nM
7 | COCC(CO)(OC[C@H]1O[C@@H](n2ncc3c(NC4CCCC4)nc(Cl)nc32)[C@H](O)[C@@H]1O)P(=O)(O)O (mixture of isomers) | 0.53 | –
8 | O=P(O)(O)CCOC[C@H]1O[C@@H](n2ncc3c(NCc4ccccc4Cl)nc(Cl)nc32)[C@H](O)[C@@H]1O | 88 | –
9 | O=P(O)(O)COC[C@H]1O[C@@H](n2ncc3c(NC4CCCC4)nc(Cl)nc32)[C@H](O)[C@@H]1O | 11 | –
10 | O=P(O)(O)C(OC[C@H]1O[C@@H](n2ncc3c(NC4CCCC4)nc(Cl)nc32)[C@H](O)[C@@H]1O)c1nnn[nH]1 (mixture of isomers) | 28 | –
11 | O=P(O)(O)CS(=O)(=O)NC[C@H]1O[C@@H](n2ncc3c(NCc4ccccc4Cl)nc(Cl)nc32)[C@H](O)[C@@H]1O | 328 | –
12 | O=P(O)(O)COCC[C@H]1O[C@@H](n2ncc3c(NCc4ccccc4Cl)nc(Cl)nc32)[C@H](O)[C@@H]1O | 1200 | –
13 | CN(C[C@H]1O[C@@H](n2ncc3c(NCc4ccccc4Cl)nc(Cl)nc32)[C@H](O)[C@@H]1O)C(=O)CP(=O)(O)O | 248 | –
14 | N#CC(OC[C@H]1O[C@@H](n2ncc3c(NC4CCCC4)nc(Cl)nc32)[C@H](O)[C@@H]1O)P(=O)(O)O (mixture of isomers) | 559 | –
15 | CN(c1nc(Cl)nc2c1nnn2[C@@H]1O[C@H](COP(=O)(O)CP(=O)(O)O)[C@@H](O)[C@H]1O)[C@H]1CCc2ccccc21 | 1.3 | –
16 | COP(=O)(CP(=O)(O)O)OC[C@H]1O[C@@H](n2ncc3c(NCc4ccccc4Cl)nc(Cl)nc32)[C@H](O)[C@@H]1O (some centres undefined) | 24.7 | –
17 | O=P(O)(O)C(CO)(CO)OC[C@H]1O[C@@H](n2ncc3c(NC4CCCC4)nc(Cl)nc32)[C@H](O)[C@@H]1O | 0.57 | AUC(0-inf) [3]: 95.6 µM·h; half-life [4]: 3.3 h; EC50 (5'-nucleotidase [1]): 46 nM; EC50 (5'-nucleotidase [5]): 3.7 nM; Cmax [6]: 67.4 µM
18 | CN(c1nc(Cl)nc2c1cnn2[C@@H]1O[C@H](COP(=O)(O)CP(=O)(O)O)[C@@H](O)[C@H]1O)[C@H]1CCc2ccccc21 | 0.52 | –
19 | CC(CO)(OC[C@H]1O[C@@H](n2ncc3c(NC4CCCC4)nc(Cl)nc32)[C@H](O)[C@@H]1O)P(=O)(O)O (mixture of isomers) | 1.3 | –
20 | CC(OC[C@H]1O[C@@H](n2ncc3c(NC4CCCC4)nc(Cl)nc32)[C@H](O)[C@@H]1O)P(=O)(O)O (mixture of isomers) | 18 | –
21 | O=P(O)(O)C(CO)OC[C@H]1O[C@@H](n2ncc3c(NC4CCCC4)nc(Cl)nc32)[C@H](O)[C@@H]1O (mixture of isomers) | 2.4 | –

More lines, main results first:

Row | IC50 (5'-nucleotidase [2]) [nM] | SMILES | further results
22 | 23 | CC(CS(C)(=O)=O)(OC[C@H]1O[C@@H](n2ncc3c(NC4CCCC4)nc(Cl)nc32)[C@H](O)[C@@H]1O)P(=O)(O)O (mixture of isomers) | –
23 | 387 | O=P(O)(O)C(OC[C@H]1O[C@@H](n2ncc3c(NC4CCCC4)nc(Cl)nc32)[C@H](O)[C@@H]1O)C(F)(F)F (mixture of isomers) | –
24 | 193 | CS(=O)(=O)C(OC[C@H]1O[C@@H](n2ncc3c(NC4CCCC4)nc(Cl)nc32)[C@H](O)[C@@H]1O)P(=O)(O)O (mixture of isomers) | –
25 | 2870 | COP(=O)(O)CP(=O)(OC)OC[C@H]1O[C@@H](n2ncc3c(NCc4ccccc4Cl)nc(Cl)nc32)[C@H](O)[C@@H]1O (some centres undefined) | –
26 | 108 | O=C(O)C(OC[C@H]1O[C@@H](n2ncc3c(NC4CCCC4)nc(Cl)nc32)[C@H](O)[C@@H]1O)P(=O)(O)O (mixture of isomers) | –
27 | 31 | CC(CCO)(OC[C@H]1O[C@@H](n2ncc3c(NC4CCCC4)nc(Cl)nc32)[C@H](O)[C@@H]1O)P(=O)(O)O (mixture of isomers) | –
28 | 0.96 | COCC(OC[C@H]1O[C@@H](n2ncc3c(NC4CCCC4)nc(Cl)nc32)[C@H](O)[C@@H]1O)P(=O)(O)O (mixture of isomers) | –
29 | 3.9 | O=P(O)(O)CP(=O)(O)OC[C@H]1O[C@@H](n2nnc3c(NCc4ccccc4Cl)nc(Cl)nc32)[C@H](O)[C@@H]1O | –
30 | > 5000 | CN(C)CC(C)(OC[C@H]1O[C@@H](n2ncc3c(NC4CCCC4)nc(Cl)nc32)[C@H](O)[C@@H]1O)P(=O)(O)O (mixture of isomers) | –
31 | 10 | CSCC(C)(OC[C@H]1O[C@@H](n2ncc3c(NC4CCCC4)nc(Cl)nc32)[C@H](O)[C@@H]1O)P(=O)(O)O (mixture of isomers) | –
32 | 510 | O=C(CP(=O)(O)O)OC[C@H]1O[C@@H](n2ncc3c(NCc4ccccc4Cl)nc(Cl)nc32)[C@H](O)[C@@H]1O | –
33 | 29 | O=P(O)(O)COC[C@H]1O[C@@H](n2ncc3c(NCc4ccccc4Cl)nc(Cl)nc32)[C@H](O)[C@@H]1O | AUC(0-inf) [7]: 0.66 µM·h; Cmax [8]: 0.11 µM; half-life [9]: 1.9 h
34 | 13 | O=P(O)(O)CS(=O)(=O)C[C@H]1O[C@@H](n2ncc3c(NCc4ccccc4Cl)nc(Cl)nc32)[C@H](O)[C@@H]1O | AUC(0-inf) [7]: 0.54 µM·h; Cmax [8]: 0.06 µM; half-life [9]: 3 h
35 | 131 | COP(=O)(O)CP(=O)(O)OC[C@H]1O[C@@H](n2ncc3c(NCc4ccccc4Cl)nc(Cl)nc32)[C@H](O)[C@@H]1O | –
36 | 164 | O=P(O)(O)CSC[C@H]1O[C@@H](n2ncc3c(NCc4ccccc4Cl)nc(Cl)nc32)[C@H](O)[C@@H]1O | –
37 | 97 | CN(CC(C)(OC[C@H]1O[C@@H](n2ncc3c(NC4CCCC4)nc(Cl)nc32)[C@H](O)[C@@H]1O)P(=O)(O)O)S(C)(=O)=O (mixture of isomers) | –
